This is an account of results in publication PMC4685012 (Bioorganic & medicinal chemistry, 2015).

One test deals with HDAC1/2. The settings on record: read-out: HDAC1/2 IC50; cited from earlier work.
For the next test, the system named is Vero cells. In words: Cell viability. The format is cell-based, monkey. The following applies: Primates, 72 h, read-out: Anti-proliferative activity IC50, Vero.

In the case of `CC[C@H]1OC(=O)[C@@H](C)[C@H](O[C@H]2C[C@@](C)(OC)[C@@H](O)[C@H](C)O2)[C@H](C)[C@H](O[C@H]2O[C@@H](C)C[C@@H](N(C)Cc3ccc(-c4cn(CCCCCCC(=O)NO)nn4)cc3)[C@@H]2O)[C@@](C)(O)C[C@H](C)CN(C)[C@@H](C)[C@H](O)[C@@]1(C)O` [Compound 17f], the IC50 with HDAC1/2 is 13.9 nM.

Regarding `O=C(CCCCCCC(=O)Nc1ccccc1)NO` [SAHA, suberoylanilide hydroxamic acid, reference compound], in the test on Vero cells, the IC50 turned out to be 1030 ± 90 nM.
